Assay results taken from PubChem BioAssay (NCI).
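In this assay, cells in 96-well plates receive the compound at five concentrations for 48 hours. Endpoints are linearly interpolated between the surrounding concentrations. GI50: concentration for 50% inhibition of growth. TGI: concentration producing complete growth inhibition.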

Tests used:
Assay in all cases: NCI-60 cell line screen, 48 h
DU-145 prostate = tested on: DU-145 prostate
SK-MEL-28 melanoma = tested on: SK-MEL-28 melanoma
HOP-62 NSCLC = tested on: HOP-62 NSCLC
ACHN renal = tested on: ACHN renal
EKVX NSCLC = tested on: EKVX NSCLC
OVCAR-5 ovarian = tested on: OVCAR-5 ovarian
TK-10 renal = tested on: TK-10 renal
CCRF-CEM leukemia = tested on: CCRF-CEM leukemia
M14 melanoma = tested on: M14 melanoma
NCI-H23 lung = tested on: NCI-H23 lung
CAKI-1 renal = tested on: CAKI-1 renal
HT29 colon = tested on: HT29 colon
NCI-H522 lung = tested on: NCI-H522 lung
NCI/ADR-RES ovarian = tested on: NCI/ADR-RES ovarian
SW-620 colon = tested on: SW-620 colon
IGROV1 ovarian = tested on: IGROV1 ovarian
UO-31 renal = tested on: UO-31 renal
U251 CNS = tested on: U251 CNS
SK-MEL-2 melanoma = tested on: SK-MEL-2 melanoma
HL-60(TB) leukemia = tested on: HL-60(TB) leukemia
OVCAR-4 ovarian = tested on: OVCAR-4 ovarian
MCF7 breast = tested on: MCF7 breast
RXF 393 renal = tested on: RXF 393 renal
SNB-75 CNS = tested on: SNB-75 CNS
RPMI-8226 leukemia = tested on: RPMI-8226 leukemia
NCI-H226 lung = tested on: NCI-H226 lung
PC-3 prostate = tested on: PC-3 prostate
MDA-N = tested on: MDA-N
SF-268 CNS = tested on: SF-268 CNS
KM12 colon = tested on: KM12 colon
UACC-62 melanoma = tested on: UACC-62 melanoma
SF-539 CNS = tested on: SF-539 CNS
MDA-MB-231 breast = tested on: MDA-MB-231 breast
BT-549 breast = tested on: BT-549 breast
LOX IMVI melanoma = tested on: LOX IMVI melanoma
SR leukemia = tested on: SR leukemia
MDA-MB-435 = tested on: MDA-MB-435
A549 NSCLC = tested on: A549 NSCLC
SN12C renal = tested on: SN12C renal
SNB-19 CNS = tested on: SNB-19 CNS
A498 renal = tested on: A498 renal
HCC-2998 colon = tested on: HCC-2998 colon
T-47D breast = tested on: T-47D breast
HCT-116 colon = tested on: HCT-116 colon
HS 578T breast = tested on: HS 578T breast
MALME-3M melanoma = tested on: MALME-3M melanoma
K-562 leukemia = tested on: K-562 leukemia
SK-MEL-5 melanoma = tested on: SK-MEL-5 melanoma
HOP-92 NSCLC = tested on: HOP-92 NSCLC
SK-OV-3 ovarian = tested on: SK-OV-3 ovarian
OVCAR-8 ovarian = tested on: OVCAR-8 ovarian
SF-295 CNS = tested on: SF-295 CNS
HCT-15 colon = tested on: HCT-15 colon
UACC-257 melanoma = tested on: UACC-257 melanoma
786-0 renal = tested on: 786-0 renal
COLO 205 colon = tested on: COLO 205 colon
NCI-H460 lung = tested on: NCI-H460 lung
OVCAR-3 ovarian = tested on: OVCAR-3 ovarian
MOLT-4 leukemia = tested on: MOLT-4 leukemia

SMILES: CC[C@@]1(O)C(=O)N(CCN(C)C)Cc2c1cc1n(c2=O)Cc2cc3ccccc3nc2-1
- GI50 (DU-145 prostate): 4.64 µM
- TGI (DU-145 prostate): > 100 µM
- GI50 (SK-MEL-28 melanoma): 34.7 µM
- TGI (SK-MEL-28 melanoma): > 92.8 µM
- GI50 (HOP-62 NSCLC): 5.21 µM
- TGI (HOP-62 NSCLC): > 100 µM
- GI50 (ACHN renal): 4.31 µM
- TGI (ACHN renal): > 100 µM
- GI50 (EKVX NSCLC): > 67.9 µM
- TGI (EKVX NSCLC): > 100 µM
- GI50 (OVCAR-5 ovarian): > 100 µM
- TGI (OVCAR-5 ovarian): > 100 µM
- GI50 (TK-10 renal): > 100 µM
- TGI (TK-10 renal): > 100 µM
- GI50 (CCRF-CEM leukemia): 4.74 µM
- TGI (CCRF-CEM leukemia): > 100 µM
- GI50 (M14 melanoma): 9.31 µM
- TGI (M14 melanoma): > 100 µM
- GI50 (NCI-H23 lung): 8.35 µM
- TGI (NCI-H23 lung): > 100 µM
- GI50 (CAKI-1 renal): 4.27 µM
- TGI (CAKI-1 renal): > 100 µM
- GI50 (HT29 colon): 24.6 µM
- TGI (HT29 colon): > 100 µM
- GI50 (NCI-H522 lung): 7.05 µM
- TGI (NCI-H522 lung): > 89 µM
- GI50 (NCI/ADR-RES ovarian): 13.7 µM
- TGI (NCI/ADR-RES ovarian): > 94.8 µM
- GI50 (SW-620 colon): 34.6 µM
- TGI (SW-620 colon): > 100 µM
- GI50 (IGROV1 ovarian): 26 µM
- TGI (IGROV1 ovarian): > 100 µM
- GI50 (UO-31 renal): 9.41 µM
- TGI (UO-31 renal): > 100 µM
- GI50 (U251 CNS): 18.9 µM
- TGI (U251 CNS): > 100 µM
- GI50 (SK-MEL-2 melanoma): > 100 µM
- TGI (SK-MEL-2 melanoma): > 100 µM
- GI50 (HL-60(TB) leukemia): 5.4 µM
- TGI (HL-60(TB) leukemia): > 100 µM
- GI50 (OVCAR-4 ovarian): 58.1 µM
- TGI (OVCAR-4 ovarian): > 100 µM
- GI50 (MCF7 breast): 14.9 µM
- TGI (MCF7 breast): > 100 µM
- GI50 (RXF 393 renal): 71.4 µM
- TGI (RXF 393 renal): > 100 µM
- GI50 (SNB-75 CNS): 17.4 µM
- TGI (SNB-75 CNS): > 100 µM
- GI50 (RPMI-8226 leukemia): > 43.9 µM
- TGI (RPMI-8226 leukemia): > 100 µM
- GI50 (NCI-H226 lung): 64.3 µM
- TGI (NCI-H226 lung): > 100 µM
- GI50 (PC-3 prostate): 41.3 µM
- TGI (PC-3 prostate): > 100 µM
- GI50 (MDA-N): > 83.8 µM
- TGI (MDA-N): > 100 µM
- GI50 (SF-268 CNS): 3.59 µM
- TGI (SF-268 CNS): > 100 µM
- GI50 (KM12 colon): 12.5 µM
- TGI (KM12 colon): > 54.1 µM
- GI50 (UACC-62 melanoma): 7.2 µM
- TGI (UACC-62 melanoma): > 100 µM
- GI50 (SF-539 CNS): 3.77 µM
- TGI (SF-539 CNS): 13.1 µM
- GI50 (MDA-MB-231 breast): > 100 µM
- TGI (MDA-MB-231 breast): > 100 µM
- GI50 (BT-549 breast): 42.5 µM
- TGI (BT-549 breast): > 100 µM
- GI50 (LOX IMVI melanoma): 6.19 µM
- TGI (LOX IMVI melanoma): > 50.7 µM
- GI50 (SR leukemia): 6.24 µM
- TGI (SR leukemia): > 100 µM
- GI50 (MDA-MB-435): > 100 µM
- TGI (MDA-MB-435): > 100 µM
- GI50 (A549 NSCLC): 26 µM
- TGI (A549 NSCLC): > 100 µM
- GI50 (SN12C renal): 8.85 µM
- TGI (SN12C renal): > 100 µM
- GI50 (SNB-19 CNS): > 24.9 µM
- TGI (SNB-19 CNS): > 100 µM
- GI50 (A498 renal): 56.2 µM
- TGI (A498 renal): > 100 µM
- GI50 (HCC-2998 colon): 39.7 µM
- TGI (HCC-2998 colon): > 100 µM
- GI50 (T-47D breast): 21 µM
- TGI (T-47D breast): > 100 µM
- GI50 (HCT-116 colon): 12.4 µM
- TGI (HCT-116 colon): > 100 µM
- GI50 (HS 578T breast): > 100 µM
- TGI (HS 578T breast): > 100 µM
- GI50 (MALME-3M melanoma): > 100 µM
- TGI (MALME-3M melanoma): > 100 µM
- GI50 (K-562 leukemia): > 41.7 µM
- TGI (K-562 leukemia): > 100 µM
- GI50 (SK-MEL-5 melanoma): > 25.2 µM
- TGI (SK-MEL-5 melanoma): > 56.1 µM
- GI50 (HOP-92 NSCLC): > 25.9 µM
- TGI (HOP-92 NSCLC): > 100 µM
- GI50 (SK-OV-3 ovarian): > 100 µM
- TGI (SK-OV-3 ovarian): > 100 µM
- GI50 (OVCAR-8 ovarian): 12.5 µM
- TGI (OVCAR-8 ovarian): > 100 µM
- GI50 (SF-295 CNS): 5.63 µM
- TGI (SF-295 CNS): > 100 µM
- GI50 (HCT-15 colon): 33.1 µM
- TGI (HCT-15 colon): > 100 µM
- GI50 (UACC-257 melanoma): > 100 µM
- TGI (UACC-257 melanoma): > 100 µM
- GI50 (786-0 renal): 8.09 µM
- TGI (786-0 renal): > 100 µM
- GI50 (COLO 205 colon): > 91.6 µM
- TGI (COLO 205 colon): > 100 µM
- GI50 (NCI-H460 lung): 1.82 µM
- TGI (NCI-H460 lung): > 83.1 µM
- GI50 (OVCAR-3 ovarian): > 100 µM
- TGI (OVCAR-3 ovarian): > 100 µM
- GI50 (MOLT-4 leukemia): 3.93 µM
- TGI (MOLT-4 leukemia): > 100 µM

SMILES: Cc1nc2ccccc2nc1N1CCCC1
- TGI (DU-145 prostate): > 100 µM
- TGI (SK-MEL-28 melanoma): > 100 µM
- TGI (HOP-62 NSCLC): > 100 µM
- TGI (ACHN renal): > 100 µM
- TGI (EKVX NSCLC): > 100 µM
- TGI (OVCAR-5 ovarian): > 100 µM
- TGI (TK-10 renal): > 100 µM
- TGI (M14 melanoma): > 100 µM
- TGI (NCI-H23 lung): > 100 µM
- TGI (CAKI-1 renal): > 100 µM
- TGI (HT29 colon): > 100 µM
- TGI (NCI-H522 lung): > 100 µM
- TGI (NCI/ADR-RES ovarian): > 100 µM
- TGI (SW-620 colon): > 100 µM
- TGI (IGROV1 ovarian): > 100 µM
- TGI (U251 CNS): > 100 µM
- TGI (SK-MEL-2 melanoma): > 100 µM
- TGI (OVCAR-4 ovarian): > 100 µM
- TGI (MCF7 breast): > 100 µM
- TGI (RXF 393 renal): > 100 µM
- TGI (SNB-75 CNS): > 100 µM
- TGI (RPMI-8226 leukemia): > 100 µM
- TGI (NCI-H226 lung): > 100 µM
- TGI (PC-3 prostate): > 100 µM
- TGI (MDA-N): > 100 µM
- TGI (SF-268 CNS): > 100 µM
- TGI (KM12 colon): > 100 µM
- TGI (UACC-62 melanoma): > 100 µM
- TGI (MDA-MB-231 breast): > 100 µM
- TGI (BT-549 breast): > 100 µM
- TGI (LOX IMVI melanoma): > 100 µM
- TGI (SR leukemia): > 100 µM
- TGI (MDA-MB-435): > 100 µM
- TGI (A549 NSCLC): > 100 µM
- TGI (SN12C renal): > 100 µM
- TGI (SNB-19 CNS): > 100 µM
- TGI (A498 renal): > 100 µM
- TGI (HCC-2998 colon): > 100 µM
- TGI (T-47D breast): > 100 µM
- TGI (HCT-116 colon): > 100 µM
- TGI (HS 578T breast): > 100 µM
- TGI (MALME-3M melanoma): > 100 µM
- TGI (K-562 leukemia): > 100 µM
- TGI (SK-MEL-5 melanoma): > 100 µM
- TGI (HOP-92 NSCLC): > 100 µM
- TGI (SK-OV-3 ovarian): > 100 µM
- TGI (OVCAR-8 ovarian): > 100 µM
- TGI (SF-295 CNS): > 100 µM
- TGI (HCT-15 colon): > 100 µM
- TGI (UACC-257 melanoma): > 100 µM
- TGI (786-0 renal): > 100 µM
- TGI (COLO 205 colon): > 100 µM
- TGI (NCI-H460 lung): > 100 µM
